The results in this text go back to US10590178B2 (priority 2014, dated 2020).

The subject of one assay is C. albicans. The assay is described as follows: Chimeric double peptide-pulsed DC vaccination versus single peptides and mixture, lethal Candida challenge in mice (survival, kidney CFUs). Particulars: for kidney CFUs: compared to non-immune mice / other vaccines.
For another assay, the system named is Met6-8MAP. The assay is described as follows: Serum antibody ELISA after immunization, plates coated with Met6-8MAP. It counts as in vivo. The following applies: after first booster; serum diluted 1:200; alum adjuvant; OD 492 nm. Here is the method: Sera antibody titers were analyzed by ELISA. For DC-based immunization, the control groups were mice given DCs alone, or given DPBS alone, for all three injections. […] Fbb-8MAP or Met6-8MAP was dissolved at 5 μg/ml in PBS (pH 7.4), and used to coat 96-well ELISA plates with duplicate, serial, 2-fold dilutions of samples of each immune serum and control serum. Each well was treated with secondary antibody (goat anti-mouse polyvalent Ig-HRP, Sigma) and substrate (o-phenylenediamine and H2O2). Optical density was measured at 492 nm.
Serum samples were collected 14 days after immunization, diluted 1:200, and tested by ELISA on plates coated with the applicable peptide-8MAP conjugate. […] However, the immune responses to the MAP conjugates were substantially weaker than those induced by peptide-pulsed DC immunization.

Procedure for C. albicans: Different groups of dendritic cells (DCs) were pulsed in vitro with Fba peptide, Met6 peptide, Fba-Met6 chimeric double peptide, or a mixture of the two peptides Fba and Met6. Briefly, DCs in culture were pulsed with the peptide antigen (1 μM) on day 6. On day 7, PGE2 (10^−7 M) was added along with LPS (2 μg/ml, Sigma) for 24 h. On day 9, antigen-pulsed DCs were washed extensively and 5×10^5 cells in 200 μl DPBS were injected into mice i.p. with complete Freund's adjuvant as the priming dose. The mice were boosted i.p. at day 14 with fresh antigen-pulsed DCs and adjuvant. The mice were again boosted i.p. at day 28 with fresh antigen-pulsed DCs, but the final boost used no adjuvant.
Two weeks after the second boost, immunized and control mice were both infected i.v. with a lethal dose of live C. albicans yeast cells (5×10^5 in 0.1 ml of DPBS), prepared as described above. Passively immunized mice (see below) also received the same challenge dose. Protection was evaluated by monitoring animal survival for 50-60 days. The mice were monitored for the development of a moribund state: defined as being listless, disinterested in food or water, and nonreactive to finger probing. Once a mouse was deemed moribund, it was sacrificed and its kidneys were homogenized in DPBS and plated onto a nutrient agar to determine the number of colony forming units of yeast (CFUs).

With “YGKDVKDLFDYAQEKKPRIGGQRELKKITE [Fba-KK-Met6]”, the “kidney CFUs” value is recorded as “only one mouse in that group exhibited any detectable kidney CFUs” with C. albicans (listed as Fba-Met6 chimeric double peptide vaccine) and “much lower CFUs in kidneys” with C. albicans (listed as Fba-Met6 conjugate). The “survival rate / protection” value in the assay with C. albicans (up to 60 days (end of experiment)) came out at 100%.

In the case of “PRIGGQRELKKITE (Met6 peptide) [14-mer peptide from C. albicans cell wall protein Met6]”, the “antibody response compared to negative control mice (DPBS or adjuvant only)” value in the assay on Met6-8MAP is listed as 4-5 fold.
